# Tests used:
# Type in all cases: cell-based
# SMARCA4 [1] = biological target: T1, SMARCA4 (Homo sapiens, UniProt P51532); assay: HiBiT assay for protein degradation, Hela SMARCA4-HiBiT cells (A series); set-up: fuse HiBiT to the carboxy terminus of SMARCA2 (Promega CS302365) or SMARCA4 (Promega CS3023225); host or cells: HeLa (CRISPR/Cas9 HiBiT knock-in); conditions: for DC50: read-out: SMARC A4 Hela HiBit DC50; for Dmax: read-out: SMARC A4 Hela HiBit Dmax(%)
# Protocol: (§1) Hela cells were genetically modified via CRISPR/Cas9 to fuse HiBiT to the carboxy terminus of SMARCA2 (Promega CS302365) or SMARCA4 (Promega CS3023225). Cells were cultured in DMEM containing 10% FBS and 1% (Vol:Vol) penicillin-streptomycin. […] At the end of experiment, levels of SMARCA2 or SMARCA4 expression were assessed with Nano-Glo® HiBiT Lytic Detection Assay (Promega N3050). IC50 was obtained using the GraphPad Prism data analysis software.
# SMARCA2 [2] = biological target: T2, SMARCA2 (Homo sapiens, UniProt P51531); assay: HiBiT assay for protein degradation, Hela SMARCA2-HiBiT cells (A series); set-up: Hela cells were genetically modified via CRISPR/Cas9 to fuse HiBiT to the carboxy terminus of SMARCA2; host or cells: HeLa (CRISPR/Cas9 HiBiT knock-in); conditions: for DC50: read-out: SMARC A2 Hela HiBit DC50; for Dmax: read-out: SMARC A2 Hela HiBit Dmax (%);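 on SMARC A2 Hela HiBit Dmax (%): 24 h compound treatment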
# T2 sequence (P51531 whole entry): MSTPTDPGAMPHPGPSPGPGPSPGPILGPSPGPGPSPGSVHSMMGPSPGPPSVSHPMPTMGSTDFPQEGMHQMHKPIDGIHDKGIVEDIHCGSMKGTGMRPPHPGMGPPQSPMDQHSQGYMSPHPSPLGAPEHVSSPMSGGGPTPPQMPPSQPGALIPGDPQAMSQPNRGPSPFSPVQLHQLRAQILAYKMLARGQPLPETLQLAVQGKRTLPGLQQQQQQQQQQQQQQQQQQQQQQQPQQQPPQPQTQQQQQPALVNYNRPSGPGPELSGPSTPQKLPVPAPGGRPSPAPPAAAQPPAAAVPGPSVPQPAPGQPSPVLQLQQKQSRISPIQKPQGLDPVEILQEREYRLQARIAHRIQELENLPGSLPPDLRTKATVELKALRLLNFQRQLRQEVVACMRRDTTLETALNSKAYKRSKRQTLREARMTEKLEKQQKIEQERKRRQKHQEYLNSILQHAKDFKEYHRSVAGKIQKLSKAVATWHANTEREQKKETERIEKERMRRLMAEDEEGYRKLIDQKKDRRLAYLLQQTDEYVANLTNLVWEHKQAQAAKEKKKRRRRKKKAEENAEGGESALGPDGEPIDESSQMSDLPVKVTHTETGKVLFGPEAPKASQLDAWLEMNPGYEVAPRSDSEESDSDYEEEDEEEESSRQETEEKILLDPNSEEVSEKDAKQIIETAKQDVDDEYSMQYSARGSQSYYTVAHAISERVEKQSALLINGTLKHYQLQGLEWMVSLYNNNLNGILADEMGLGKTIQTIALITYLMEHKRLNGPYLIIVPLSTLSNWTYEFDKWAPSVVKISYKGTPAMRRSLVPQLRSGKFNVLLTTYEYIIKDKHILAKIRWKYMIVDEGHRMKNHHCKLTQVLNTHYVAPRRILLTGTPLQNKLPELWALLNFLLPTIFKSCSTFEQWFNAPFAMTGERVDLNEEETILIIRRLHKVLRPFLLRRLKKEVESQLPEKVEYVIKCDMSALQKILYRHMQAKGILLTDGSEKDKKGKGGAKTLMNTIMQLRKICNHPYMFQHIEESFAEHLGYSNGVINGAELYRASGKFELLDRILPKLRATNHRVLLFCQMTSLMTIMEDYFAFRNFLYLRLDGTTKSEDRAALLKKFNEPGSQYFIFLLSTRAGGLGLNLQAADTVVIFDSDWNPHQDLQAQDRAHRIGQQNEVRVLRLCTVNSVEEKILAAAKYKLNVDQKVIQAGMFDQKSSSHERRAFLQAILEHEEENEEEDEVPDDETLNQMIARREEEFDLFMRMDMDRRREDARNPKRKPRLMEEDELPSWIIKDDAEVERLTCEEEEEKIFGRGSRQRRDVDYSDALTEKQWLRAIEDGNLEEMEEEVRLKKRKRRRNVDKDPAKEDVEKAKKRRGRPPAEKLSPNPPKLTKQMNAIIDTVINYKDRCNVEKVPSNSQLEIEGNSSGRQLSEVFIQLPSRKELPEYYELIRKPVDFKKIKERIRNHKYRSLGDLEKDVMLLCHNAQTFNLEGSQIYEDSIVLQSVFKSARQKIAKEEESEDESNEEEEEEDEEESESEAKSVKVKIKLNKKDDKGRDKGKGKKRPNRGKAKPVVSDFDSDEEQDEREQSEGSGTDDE
# Protocol: as §1
# SMARCA2 [3] = biological target: T2, SMARCA2; assay: HiBit assay in engineered HT1080 CRISPR knock-in cell, 6 hrs (B series), SMARCA2; conditions: 6 hrs incubation; for SMARC A2 HT1080 HiBit Dmax (%) / DC50: HT1080 CRISPR knock-in cells; for DC50: read-out: SMARC A2 HT1080 HiBit DC50; for Dmax: HT-1080, HT1080 CRISPR knock-in cells, read-out: SMARC A2 HT1080 HiBit Dmax (%)
# Summary of the method: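 Using a 6 hr treatment window at 37° C and 5% CO2, tagged HT1080 knock-in cells were exposed to test compounds with DMSO vehicle held at 0.1%. Signal came from lytic LgBiT/substrate reagent added after incubation, with control wells lacking LgBiT, and was read as luminescence.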
# SMARCA4 [4] = biological target: T1, SMARCA4; assay: HiBit assay in engineered HT1080 CRISPR knock-in cell, 6 hrs (B series), SMARCA4; conditions: 6 hrs incubation; for SMARC A4 HT1080 HiBit Dmax(%) / DC50: HT1080 CRISPR knock-in cells; for DC50: read-out: SMARC A4 HT1080 HiBit DC50; for Dmax: HT-1080, HT1080 CRISPR knock-in cells, read-out: SMARC A4 HT1080 HiBit Dmax(%)
# Summary of the method: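 HT1080 CRISPR knock-in cells carrying the HiBiT tag were seeded onto compounds (final DMSO 0.1%) and incubated 6 hrs at 37° C, 5% CO2. Remaining tagged protein was detected by lytic HiBiT luminescence after adding LgBiT protein and substrate, with LgBiT-free wells serving as negative control.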
# [5] = Hela SMARCA4-HiBiT cells, 24 hours treatment
# [6] = Hela SMARCA2-HiBiT cells, 24 hours treatment
# T1 sequence (P51532 whole entry): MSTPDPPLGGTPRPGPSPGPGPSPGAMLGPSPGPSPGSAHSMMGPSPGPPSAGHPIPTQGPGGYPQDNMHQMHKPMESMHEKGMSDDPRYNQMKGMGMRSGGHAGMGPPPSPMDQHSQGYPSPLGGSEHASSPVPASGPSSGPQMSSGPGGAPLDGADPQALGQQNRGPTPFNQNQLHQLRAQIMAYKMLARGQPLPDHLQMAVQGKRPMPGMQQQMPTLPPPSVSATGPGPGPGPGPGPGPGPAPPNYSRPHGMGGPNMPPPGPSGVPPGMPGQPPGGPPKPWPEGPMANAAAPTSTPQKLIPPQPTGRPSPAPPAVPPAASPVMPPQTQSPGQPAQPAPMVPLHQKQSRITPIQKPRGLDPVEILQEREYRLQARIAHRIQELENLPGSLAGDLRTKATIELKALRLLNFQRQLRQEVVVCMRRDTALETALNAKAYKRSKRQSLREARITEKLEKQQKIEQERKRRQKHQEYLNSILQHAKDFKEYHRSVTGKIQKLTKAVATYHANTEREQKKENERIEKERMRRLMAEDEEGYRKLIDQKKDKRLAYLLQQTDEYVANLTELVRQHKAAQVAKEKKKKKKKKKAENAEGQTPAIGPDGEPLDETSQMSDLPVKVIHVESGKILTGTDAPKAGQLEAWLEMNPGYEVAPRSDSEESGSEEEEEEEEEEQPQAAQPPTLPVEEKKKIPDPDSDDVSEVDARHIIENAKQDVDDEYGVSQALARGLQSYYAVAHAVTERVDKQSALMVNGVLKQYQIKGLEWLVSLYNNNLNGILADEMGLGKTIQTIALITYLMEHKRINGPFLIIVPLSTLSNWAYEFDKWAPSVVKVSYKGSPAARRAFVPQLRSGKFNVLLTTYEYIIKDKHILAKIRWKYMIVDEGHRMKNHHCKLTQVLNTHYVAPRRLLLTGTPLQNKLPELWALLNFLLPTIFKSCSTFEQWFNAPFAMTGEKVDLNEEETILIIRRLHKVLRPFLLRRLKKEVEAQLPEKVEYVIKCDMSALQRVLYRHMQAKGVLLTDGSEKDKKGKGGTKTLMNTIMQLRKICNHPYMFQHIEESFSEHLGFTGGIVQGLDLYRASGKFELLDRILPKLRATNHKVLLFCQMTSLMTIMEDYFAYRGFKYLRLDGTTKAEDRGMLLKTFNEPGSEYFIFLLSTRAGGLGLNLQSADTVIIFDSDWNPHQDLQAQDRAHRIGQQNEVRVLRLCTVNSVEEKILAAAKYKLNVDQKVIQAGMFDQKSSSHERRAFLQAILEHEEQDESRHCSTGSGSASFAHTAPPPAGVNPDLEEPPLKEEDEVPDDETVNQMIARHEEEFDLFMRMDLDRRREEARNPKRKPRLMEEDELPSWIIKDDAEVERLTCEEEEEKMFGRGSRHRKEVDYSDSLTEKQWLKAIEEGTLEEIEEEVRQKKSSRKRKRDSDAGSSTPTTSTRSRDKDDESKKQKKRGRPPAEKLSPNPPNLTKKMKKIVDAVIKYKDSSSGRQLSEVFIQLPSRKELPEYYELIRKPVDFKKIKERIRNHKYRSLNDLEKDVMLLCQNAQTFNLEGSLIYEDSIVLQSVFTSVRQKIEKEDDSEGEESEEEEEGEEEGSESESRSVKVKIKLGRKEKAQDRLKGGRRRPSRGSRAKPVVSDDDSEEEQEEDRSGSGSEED
DC50 (SMARCA2 [3]) [nM],DC50 (SMARCA4 [4]) [nM],SMILES,DC50 (SMARCA4 [1]; [5]) [nM],DC50 (SMARCA2 [2]; [6]) [nM],Dmax (SMARCA4 [1]; HeLa) [%],Dmax (SMARCA2 [2]; HeLa) [%],also measured
–,–,"Cc1ncsc1-c1ccc([C@H](CCCCN2CCC(c3ccc4c(c3)C3(CCCC3)c3nc(=O)c5c(Cl)cccc5n3-4)CC2)NC(=O)[C@@H]2C[C@@H](O)CN2C(=O)[C@@H](NC(=O)C2(F)CC2)C(C)(C)C)cc1 [Compound A1, (2S,4R)-N-((S)-5-(4-(4′-chloro-5′-oxo-5′H-spiro[cyclopentane-1,7′-indolo[1,2-a]quinazolin]-9′-yl)piperidin-1-yl)-1-(4-(4-methylthiazol-5-yl)phenyl)pentyl)-1-((S)-2-(1-fluorocyclopropane-1-carboxamido)-3,3-dimethylbutanoyl)-4-hydroxypyrrolidine-2-carboxamide]",100 to 500,< 100,–,–,Dmax (SMARCA4 [1]; [5]): 70 to 90%; Dmax (SMARCA2 [2]; [6]): > 90%
–,–,"Cc1ncsc1-c1ccc([C@H](CCCCCN2CCC(c3ccc4c(c3)C3(CCCC3)c3nc(=O)c5c(Cl)cccc5n3-4)CC2)NC(=O)[C@@H]2C[C@@H](O)CN2C(=O)[C@@H](NC(=O)C2(F)CC2)C(C)(C)C)cc1 [Compound A2, (2S,4R)—N—((S)-6-(4-(4′-chloro-5′-oxo-5′H-spiro[cyclopentane-1,7′-indolo[1,2-a]quinazolin]-9′-yl)piperidin-1-yl)-1-(4-(4-methylthiazol-5-yl)phenyl)hexyl)-1-((S)-2-(1-fluorocyclopropane-1-carboxamido)-3,3-dimethylbutanoyl)-4-hydroxypyrrolidine-2-carboxamide]",< 100,< 100,–,–,Dmax (SMARCA4 [1]; [5]): 70 to 90%; Dmax (SMARCA2 [2]; [6]): > 90%
–,–,"Cc1ncsc1-c1ccc([C@H](CCCCCN2CCC(c3ccc4c(c3)C3(CCCCC3)c3nc(=O)c5c(Cl)cccc5n3-4)CC2)NC(=O)[C@@H]2C[C@@H](O)CN2C(=O)[C@@H](NC(=O)C2(F)CC2)C(C)(C)C)cc1 [Compound A3, (2S,4R)—N—((S)-6-(4-(4′-chloro-5′-oxo-5′H-spiro[cyclohexane-1,7′-indolo[1,2-a]quinazolin]-9′-yl)piperidin-1-yl)-1-(4-(4-methylthiazol-5-yl)phenyl)hexyl)-1-((S)-2-(1-fluorocyclopropane-1-carboxamido)-3,3-dimethylbutanoyl)-4-hydroxypyrrolidine-2-carboxamide]",< 100,< 100,> 90,> 90,–
–,–,"Cc1ncsc1-c1ccc([C@H](CCCCCN2CCC(c3ccc4c(c3)C3(CCCCC3)c3nc(=O)c5c(Br)cccc5n3-4)CC2)NC(=O)[C@@H]2C[C@@H](O)CN2C(=O)[C@@H](NC(=O)C2(F)CC2)C(C)(C)C)cc1 [Compound A4, (2S,4R)—N—((S)-6-(4-(4′-bromo-5′-oxo-5′H-spiro[cyclohexane-1,7′-indolo[1,2-a]quinazolin]-9′-yl)piperidin-1-yl)-1-(4-(4-methylthiazol-5-yl)phenyl)hexyl)-1-((S)-2-(1-fluorocyclopropane-1-carboxamido)-3,3-dimethylbutanoyl)-4-hydroxypyrrolidine-2-carboxamide]",< 100,< 100,> 90,> 90,–
–,–,"Cc1ncsc1-c1ccc([C@H](C)NC(=O)[C@@H]2C[C@@H](O)CN2C(=O)[C@@H](NC(=O)CN2CCC(c3ccc4c(c3)C3(CCCCC3)c3nc(=O)c5c(Cl)cccc5n3-4)CC2)C(C)(C)C)cc1 [Compound A5, (2S,4R)-1-((S)-2-(2-(4-(4′-chloro-5′-oxo-5′H-spiro[cyclohexane-1,7′-indolo[1,2-a]quinazolin]-9′-yl)piperidin-1-yl)acetamido)-3,3-dimethylbutanoyl)-4-hydroxy-N—((S)-1-(4-(4-methylthiazol-5-yl)phenyl)ethyl) pyrrolidine-2-carboxamide]",< 100,< 100,> 90,> 90,–
–,–,"Cc1ncsc1-c1ccc([C@H](C)NC(=O)[C@@H]2C[C@@H](O)CN2C(=O)[C@@H](NC(=O)CCN2CCC(c3ccc4c(c3)C3(CCCCC3)c3nc(=O)c5c(Cl)cccc5n3-4)CC2)C(C)(C)C)cc1 [Compound A6, (2S,4R)-1-((S)-2-(3-(4-(4′-chloro-5′-oxo-5′H-spiro[cyclohexane-1,7′-indolo[1,2-a]quinazolin]-9′-yl)piperidin-1-yl)propanamido)-3,3-dimethylbutanoyl)-4-hydroxy-N—((S)-1-(4-(4-methylthiazol-5-yl)phenyl)ethyl) pyrrolidine-2-carboxamide]",501 to 1000,100 to 500,50 to 69,70 to 90,–
100 to 500,100 to 500,"Cc1cc(C(C(=O)N2C[C@H](O)C[C@H]2C(=O)N[C@@H](CCN2CCC(c3cccc4c3C(C)(C)c3nc(=O)c5c(Cl)cccc5n3-4)CC2)c2ccc(-c3scnc3C)cc2)C(C)C)on1 (stereo partly drawn) [Compound B165, (2S,4R)-N-((S)-3-(4-(4-chloro-7,7-dimethyl-5-oxo-5,7-dihydroindolo[1,2-a]quinazolin-8-yl)piperidin-1-yl)-1-(4-(4-methylthiazol-5-yl)phenyl)propyl)-4-hydroxy-1-(3-methyl-2-(3-methylisoxazol-5-yl)butanoyl)pyrrolidine-2-carboxamide]",–,–,–,–,SMARC A2 HT1080 HiBit Dmax (%) (SMARCA2 [3]): C (C (50-69% degradation)); SMARC A4 HT1080 HiBit Dmax(%) (SMARCA4 [4]): C (C (50-69% degradation))
100 to 500,100 to 500,"Cc1cc(C(C(=O)N2C[C@H](O)C[C@H]2C(=O)N[C@@H](CCN2CCC(c3cccc4c3C(C)(C)c3nc(=O)c5c(Cl)cccc5n3-4)CC2)c2ccc(-c3scnc3C)cc2)C(C)C)on1 (stereo partly drawn) [Compound B166, (2S,4R)-N-((S)-3-(4-(4-chloro-7,7-dimethyl-5-oxo-5,7-dihydroindolo[1,2-a]quinazolin-8-yl)piperidin-1-yl)-1-(4-(4-methylthiazol-5-yl)phenyl)propyl)-4-hydroxy-1-(3-methyl-2-(3-methylisoxazol-5-yl)butanoyl)pyrrolidine-2-carboxamide]",–,–,–,–,SMARC A2 HT1080 HiBit Dmax (%) (SMARCA2 [3]): B (B (70-90% degradation)); SMARC A4 HT1080 HiBit Dmax(%) (SMARCA4 [4]): B (B (70-90% degradation))
< 100,100 to 500,"Cc1nc(C)c(-c2ccc([C@H](C)NC(=O)[C@@H]3C[C@@H](O)CN3C(=O)[C@@H](c3cc(N4CCC(c5cccc6c5C(C)(C)c5nc(=O)c7c(Cl)cccc7n5-6)CC4)no3)C(C)C)cc2)s1 [Compound B167, (2S,4R)-1-(2-(3-(4-(4-chloro-7,7-dimethyl-5-oxo-5,7-dihydroindolo[1,2-a]quinazolin-8-yl)piperidin-1-yl)isoxazol-5-yl)-3-methylbutanoyl)-N-((S)-1-(4-(2,4-dimethylthiazol-5-yl)phenyl)ethyl)-4-hydroxypyrrolidine-2-carboxamide]",–,–,–,–,Dmax (SMARCA2 [3]): 70 to 90%; Dmax (SMARCA4 [4]): < 50%
< 100,100 to 500,"Cc1nc(C)c(-c2ccc([C@H](C)NC(=O)[C@@H]3C[C@@H](O)CN3C(=O)[C@@H](n3cc([C@H]4CC[C@H](CN5CCN(c6ccc7c(c6)-n6c(nc(=O)c8c(Cl)cccc86)C76CCCCC6)CC5)CC4)nn3)C(C)(C)C)cc2)s1 [Compound B168, (2S,4R)-1-((S)-2-(4-((1,4S)-4-((4-(4′-chloro-5′-oxo-5′H-spiro[cyclohexane-1,7′-indolo[1,2-a]quinazolin]-10′-yl)piperazin-1-yl)methyl)cyclohexyl)-1H-1,2,3-triazol-1-yl)-3,3-dimethylbutanoyl)-N-((S)-1-(4-(2,4-dimethylthiazol-5-yl)phenyl)ethyl)-4-hydroxypyrrolidine-2-carboxamide]",–,–,–,–,Dmax (SMARCA2 [3]): > 90%; Dmax (SMARCA4 [4]): 70 to 90%
< 100,< 100,Cc1ncsc1-c1ccc([C@H](C)NC(=O)[C@@H]2C[C@@H](O)CN2C(=O)[C@@H](n2cc(C34CC(C(=O)N5CCC(c6ccc7c(c6)-n6c(nc(=O)c8c(Cl)cccc86)C76CCCCC6)CC5)(C3)C4)nn2)C(C)(C)C)cc1 [Compound B169],–,–,–,–,Dmax (SMARCA2 [3]): 70 to 90%; Dmax (SMARCA4 [4]): 50 to 69%
